Columns and labels:
H1L1.1 cells [1] = assay: TCDD-inducible luciferase activity, stably transfected clonal cell line; assay type: cell-based, mouse; conditions: 24 h
Experimental: (§1) Using the stabilized luciferase assay system (purchased from Promega), luciferase activity in an aliquot of the cleared lysed cell supernatant (20 μl) was determined by mixing it with 100 µl of luciferase assay reagent (purchased from Promega) and measuring the resulting luminescence in a Turner Luminometer or Dynatech ML3000 microplate luminometer (light output was integrated over 1 minute after a delay time of 30 seconds).
(§2) Using a microplate adaptation of the method reported by Bradford in "A Rapid Sensitive Method for the Quantitation of Microgram Quantities of Protein Utilizing the Principle of Protein-Dye Binding", Anal. Biochem., […], pp. 248-254 (1976), luciferase activity was standardized to the protein concentration of the supernatant (with bovine serum albumin as the protein standard). Because of instrument differences in luminescence measurement and data output, luciferase activity was determined as relative light units (RLU) per microgram of protein, which was converted to milligram of protein as reported in the Tables below.
(§3) Cells from each of these five stable cell lines were cotransfected with the vectors, pGudLuc1.1 and pSV2neo (15 μg of each). Following a 24 hour incubation, the cotransfected cells were split 1 to 10 and replated into a selective medium containing the antibiotic, G418. After 2-3 weeks of growth, individual cell colonies were identified and isolated. Although numerous inducible cell clones were isolated, many contained high constitutive luciferase activity, possibly due to integration of the plasmid (or a truncated form of the plasmid) into a genomic site which allows the promoter to be continually active. […] The clones with the greatest ratio of inducible to constitutive luciferase activity were selected for further characterization.
(§4) More particularly, isolated clones were grown until confluent, and then incubated in the absence or presence of TCDD (1 nM solubilized in DMSO) for 24 hours. After the incubation, luciferase activity was determined as described above.

MLEL1.1c1 cells = assay: as above; assay type: cell-based, mouse; conditions: 24 h
Experimental: as §1, §2, §3, §4

mouse H1L1.1 cells = assay: Luciferase induction by TCDD in DMSO or serum, 96-well, 4 h; detection limits (FIG. 8); assay type: cell-based
Experimental: Specifically, since it is desired to utilize the present bioassay system directly to detect PAHs in samples without the need for solvent extraction and concentration, the dose-dependence of luciferase induction in cells incubated with increasing concentrations of TCDD in serum versus that observed with increasing concentrations of TCDD in DMSO was examined. In other words, the present bioassay system should be advantageously employed directly with a sample of serum from an animal or human, where the sample may contain TCDD or other PAHs and the serum is the solvent, whereby solvent extraction of the sample with DMSO as the solvent is unnecessary.
The cells were incubated with the respective increasing concentrations of TCDD for 4 hours and luciferase activity of cell lysates determined as follows. […]
After incubation for an additional 15 minutes, luciferase activity in the lysed cells was determined. Luciferase activity was sensitively measured using its bioluminescent substrate, luciferin in a Dynatech ML3000 microplate luminometer. In these experiments, cells either kept intact or lysed using luciferase lysis buffer (purchased from Promega) and luciferase activity in an aliquot of the lysate was determined by automatic injection of assay reagent and measurement of the resulting bioluminescence.

HG2L1.1c3 cells = assay: TCDD-inducible luciferase activity, stably transfected clonal cell line; assay type: cell-based, human; conditions: 24 h
Experimental: as §1
as §2, with “below. […]” for “below.”
as §4

[2] = tested on: Mouse T13 cells (recombinant Hepa1), alkaline phosphatase; conditions: Table 3 comparison, El-Fouly et al.; read-out: ED50 (the source's name); cited from earlier work
H1L1.1 cells [3] = assay: Time course of luciferase induction by TCDD (FIG. 2); assay type: cell-based, mouse; conditions: 1 nM TCDD in DMSO
Experimental: Specifically, with respect to the graph of FIG. 2, the time course of luciferase induction by TCDD was examined in order to determine the optimal time period for measurement of luciferase activity in the H1L1.1 cells. In these experiments, the cells were treated with 1 nM of TCDD solubilized in DMSO or with only DMSO. The luciferase activity was determined as described above at various times up to 32 hours post exposure. Values represent the mean ± the standard evaluation of at least triplicate determinations.

[4] = Mus musculus, TCDD 1 nM vs DMSO
[5] = TCDD 1 nM, mean ± SD of triplicate assays

In the case of `Clc1cc2c(cc1Cl)Oc1cc(Cl)c(Cl)cc1O2` [TCDD, 2,3,7,8-tetrachlorodibenzo-para-dioxin], the fold induction (H1L1.1 cells [1]; [4]) is reported as 74, the “Luciferase activity, TCDD in DMSO” value (H1L1.1 cells [1]; [5]) is reported as 5.92 ± 0.70 RLU/mg protein and the fold induction (MLEL1.1c1 cells; [4]) is reported as 14. For the same molecule, the “Luciferase activity, TCDD in DMSO” value (MLEL1.1c1 cells; [5]) was 0.29 ± 0.05 RLU/mg protein, the “Relative potency (ED50) for luciferase induction, TCDD-serum versus TCDD-DMSO” value (mouse H1L1.1 cells) was “significantly lower for the TCDD-serum sample than for the TCDD-DMSO sample” and the “Induction of luciferase by TCDD-containing serum” value (mouse H1L1.1 cells; TCDD in serum) was “dose-dependent manner”. For the same molecule, the fold induction (HG2L1.1c3 cells; Homo sapiens, TCDD 1 nM vs DMSO) was 29, the “Luciferase activity, TCDD in DMSO” value (HG2L1.1c3 cells; [5]) was 25.04 ± 1.88 RLU/mg protein and the EC50 [2] was 0.35 nM. The “Time at which TCDD-inducible luciferase activity was detectable” value (H1L1.1 cells [3]) was 2 h, the “Time by which luciferase activity decreased to a stable activity” value (H1L1.1 cells [3]) was at most 12 h and the “Time of peak TCDD-inducible luciferase activity” value (H1L1.1 cells [3]) was “about 4 hours”.
